# Marks after values point to notes of the source that are not given here.
# Assays:
# [1] = tested on: R6/2 transgenic mouse model of HD; assay: Survival of R6/2 mice, intraperitoneal dose response; assay type: in vivo
# Description: Animals: The Bedford VA Medical Center laboratories have maintained a stable colony of R6/2 HD mice for over 6 years, with founders originating from Jackson Laboratories (Bar Harbor, Me., USA). Male transgenic HD mice of the R6/2 strain were bred with females from their background strain (B6CBAFI/J). Offspring were genotyped using a PCR assay on tail DNA. We have standardized criteria to ensure homogeneity of the cohorts within the testing groups (Dedeoglu et al., 2002). Mice were randomized from 28 litters all within 3 days from the same ‘f’ generation. Body weights were taken at 20 days and mice were equally distributed according to weight within each cohort. Mice under 7 g at 20 days were excluded from the experiments. The animals were housed 5/cage under standard conditions with free access to water and food. The mice were handled under the same conditions by one investigator. Since we have not observed gender differences in survival in the R6/2 transgenic HD mouse model (Ferrante et al., 2000), female mice were used in the experimental paradigms. These experiments were carried out in accordance with the NIH Guide for the Care and Use of Laboratory Animals, and were approved by both the Veterans Administration and Boston University Animal Care Committees.
# Intraperitoneal Dosing: Based upon previous studies (Egorin et al., 1999), a dose response study was performed, treating groups of wild type mice (n=10) and littermate R6/2 mice (n=20) with 100, 200, 400, 600, 1,200, 5,000, and 10,000 mg/kg daily intraperitoneal injection (100 Êl) of sodium butyrate (Acros Organics/Fisher Scientific) dissolved in PBS and made fresh daily. […]
# Survival: R6/2 mice were assessed for morbidity and mortality twice daily, mid morning and late afternoon. Motor performance and ability to feed were closely monitored and used as the basis for determining when to euthanize the mice. […] In addition, deaths occurred overnight and were recorded the following morning. […]
# Statistics: The data are expressed as the mean+standard error of the mean. […] Survival data was analyzed by the Kaplan-Meier survival curves.
# [2] = tested on: MKP-1, α-globin, β-globin, preproenkephalin mRNA; assay: Northern blotting of brain mRNAs; assay type: in vivo, mouse; conditions: percentage of untreated R6/2, normalized to β-actin
# Experimental: Northern Blotting: Two micrograms of total RNA from brain samples of sodium butyrate-treated and untreated R6/2 and wild type mice (n=4 each) were separated on a 1.2% agarose 3% formaldehyde gel in 1× MOPS buffer, electrophoretically transferred to a nylon membrane (Genescreen Ill.) in 1× TAE, and dried in a standard utility oven at 65 βC. cDNA probes were prepared from IMAGE clones (Research Genetics, _-globin 555069, _-globin 318205, MKP-1 4235972), or cDNAs described in previous studies (enkephalin and _-actin probe sequences) (Luthi-Carter et al., 2002). Hybridizations and washes were conducted as previously described (Luthi-Carter et al. 2002). Blots were quantitated using a Molecular Dynamics Phosphorimager and its accompanying ImageQuant software. Signals for target mRNAs were expressed as ratios to _-actin signals (on the same blot), and the data was analyzed by unpaired two-tailed Student's t-test.
# [3] = tested on: Sp1; assay: Sp1 acetylation immunoprecipitation and Western blot analysis; assay type: in vivo, mouse; conditions: 1.2 g/kg/day i.p. for two weeks
# Experimental: Sp1 Acetylation Immunoprecipitation and Western Blot Analysis: At 42 days of age, groups (n=6) of R6/2 mice were treated with daily 1.2 g/kg sodium butyrate or PBS intraperitoneal injections for two weeks. The mice were euthanized and tissue lysates were obtained by homogenizing each brain sample with 100 mM Tris (pH 7.4) buffer containing 1% Triton-X 100, 150 mM NaCl, 1 mM sodium orthovanadate, 5 mM sodium fluoride, 3 mM PMSF, 3 mM DTT, 0.5 Êg/ml leupeptin, and 10 Êg/ml aprotinin. To monitor Sp1 acetylation in vivo, tissue lysates were precleared by the addition of 30 Êl of protein A-sepharose (50% v/v slurry) for 1 hr at 4° C. and incubated with 2 Êg of Sp1 antibody for 2-4 hr. Twenty-five Êl of protein A-sepharose was added to lysates and left for 1 hr at […]. All beads were collected by centrifugation and washed twice with lysis buffer and once with PBS. The samples were boiled and divided into equal aliquots before separation on SDS-PAGE. Samples were electrophoresed under reducing conditions on 8% polyacrylamide gels. Proteins were then transferred to nitrocellulose membrane (BioRad, Hercules, Calif.). […] Proteins immunoreactive to acetyl lysine were detected by using an acetyl-lysine specific antibodies (Upstate Biotechnology, Lake Placid, N.Y., 1:1000 dilution). Immunoreactive proteins were detected according to an enhanced chemiluminescent protocol (Amersham, Piscataway, N.J.). […]
# [4] = tested on: acetylated histone H3 and acetylated histone H4; assay: Histone acetylation assay (Western blot, whole brain); assay type: in vivo, mouse
# Experimental: Histone Acetylation Assay: At 42 days, groups of 10 R6/2 mice and littermate wild-type control mice were treated with daily with the most optimal dose of sodium butyrate (1.2 g/kg), as determined by survival studies, or PBS via intraperitoneal injections for two weeks. The mice were euthanized at 56 days of age and the brains rapidly frozen and stored at −80 βC. Histone acetylation was determined, using a previously reported Western analysis method (Warrel et al., 1998). Histones were isolated from sodium butyrate treated and untreated whole brains. Western blot analysis for histone acetylation was performed using acetylated histone H3 and acetylated histone H4 antibodies (Upstate Biotechnology, Lake Placid, N.Y.). Protein levels were determined via Coomassie Protein Assay (Pierce, Rockford, Ill.). Each of the sample measurements was carried out twice, with the investigator performing the assays (JKK) blind to genotype and treatment group.
# [5] = tested on: Sp1; conditions: wild type B6CBA mice at 8 weeks of age after 2 weeks of treatment (Ryu, 2003a); cited from earlier work
smiles,measurement,setting,value
CCCC(=O)[O-].[Na+] [sodium butyrate],extension of survival,"[1]; 1,200 mg/kg/d i.p. from day 21, vs PBS-treated R6/2 mice, p<0.001",20.8%
same,time at which mice became moribund and died,"[1]; 5 g/kg/d i.p., treatment initiated at 21 days",1 to 11 days
same,morbidity and mortality at onset of treatment,"[1]; 5,000 and 10,000 mg/kg/d i.p.",marked rapidly-coursing morbidity and mortality
same,"Northern, NaBu Txd R6/2 vs R6/2","[2]; MKP-1 mRNA, Cortex, p<0.0001",204%^e
same,"Northern, NaBu Txd R6/2 vs R6/2","[2]; Preproenkephalin mRNA, Striatum",98%
same,"Northern, NaBu Txd R6/2 vs R6/2","[2]; α-globin mRNA, Cortex, p<0.01",159%^c
same,"Northern, NaBu Txd R6/2 vs R6/2","[2]; β-globin mRNA, Cortex, p<0.001",206%^d
same,basal levels of Sp1,[3]; R6/2 mice,did not change
same,Sp1 acetylation levels in brain,[3]; R6/2 mice vs PBS,increased
same,difference in increased acetylation of H3 and H4 between doses,[4]; 600 mg/kg/d vs 1.2 g/kg/d,did not observe any difference
same,H3 and H4 acetylation (Western blot),"[4]; 1.2 g/kg/d i.p. for two weeks from 42 days, R6/2 brain at 56 days",marked increase
same,Sp1 acetylation,[5],significantly augmented
